{"source": "patent US20080132533A1", "about": "“Solid Dispersion Comprising Tacrolimus and Entericcoated Macromolecule” (GL PharmTech Corp., priority 2005, published 2008)", "key": {"[1]": {"test": "Dynamic solubility test in water", "format": "physicochemical", "settings": "thermodynamic from solid, 100 mL water, 37° C., 200 rpm, read-out: Solubility of tacrolimus (mean ± SD)", "description": "The excessive specimens were loaded and appropriate aliquots were collected after 0.5, 1, 2, 4, and 8 hours, and the samples were analyzed by high performance liquid chromatography."}, "[2]": {"settings": "background art; mass unit printed as an image character; cited from earlier work"}}}
{"compound": "C=CC[C@@H]1/C=C(\\C)C[C@H](C)C[C@H](OC)[C@H]2O[C@@](O)(C(=O)C(=O)N3CCCC[C@H]3C(=O)O[C@H](/C(C)=C/[C@@H]3CC[C@@H](O)[C@H](OC)C3)[C@H](C)[C@@H](O)CC1=O)[C@H](C)C[C@@H]2OC", "note": "[Control, tacrolimus]", "values": [{"measurement": "solubility at 1 h", "setting": "[1]; 1 hr", "result": "0.28 ± 0.05", "unit": "µg/mL"}, {"measurement": "solubility at 2 h", "setting": "[1]; 2 hr", "result": "0.68 ± 0.02", "unit": "µg/mL"}, {"measurement": "solubility at 4 h", "setting": "[1]; 4 hr", "result": "0.74 ± 0.01", "unit": "µg/mL"}, {"measurement": "solubility at 8 h", "setting": "[1]; 8 hr", "result": "0.96 ± 0.05", "unit": "µg/mL"}, {"measurement": "Solubility of tacrolimus in water", "setting": "[2]", "result": "1˜2 /mL"}]}
